{
  "source": "patent US20130269058A1",
  "about": "“PLANTS RESISTANT TO FUNGAL PATHOGENS AND METHODS FOR PRODUCTION THEREOF” (GENOPLANTE-VALOR, priority 2010, published 2013)",
  "key": {"WAK91 gene expression": {"tested_on": "WAK91 gene expression", "assay": "Chitin sprayed on healthy rice plants; WAK91 expression by QRT-PCR normalized by actin", "assay_type": "in vivo, rice (Oryza sativa L., cultivar Nipponbare)", "description": "(§1) FIG. 2: Chitin induces WAK91 expression. Chitin fragments (two concentrations) were sprayed on healthy rice plants. Chitin alone is sufficient to induce WAK91 (up to 4×) in entire plants after 15 minutes. The PR5 and PDX223 classical defense genes are induced later. (A) The expression value of the WAK91, PR5 and PDX223 gene expression (normalized by actin) was measured at the indicated time after treatment. (B) The expression value after chitin treatment was divided by the expression value in untreated plants and the ratio was log transformed.\n(§2) Gene expression was performed using Quantitative RT-PCR as described in Vergne et al (2007). For RT-QPCR applications, frozen tissue were ground in liquid nitrogen. Approximately 500 μl of powder was then treated with 1 ml of TRIZOL supplied by Invitrogen, vortexed for 30 s and incubated at room temperature for 15 minutes. […] Two microlitres of cDNA (dilution 1/10) were then used for quantitative RT-PCR. Quantitative RT-PCR mixtures contained PCR buffer, dNTP (0.25 mM), MgCl2 (2.5 mM), forward and reverse primers ([…]), 1 U of HotGoldStar polymerase and SYBR Green PCR mix as per the manufacturer's recommendations (Eurogentec, Seraing, Belgium). […] The quantitative RT-PCR (QRT-PCR) reactions were performed using a MX3000P machine (Stratagene) and data were extracted using the MX3000P software. […]"}, "[1]": {"tested_on": "PR5 and PDX223 classical defense genes", "assay": "Chitin sprayed on healthy rice plants; defense gene expression by QRT-PCR normalized by actin", "assay_type": "in vivo, rice (Oryza sativa L., cultivar Nipponbare)", "settings": "chitin fragments sprayed on healthy rice plants; timing relative to WAK91 induction", "description": "as §1, §2"}},
  "data": [
    {"substance": "chitin", "values": [
      {"measurement": "induction of WAK91 expression", "setting": "WAK91 gene expression; chitin fragments (two concentrations) sprayed on healthy rice plants, entire plants, after 15 minutes, versus untreated plants", "result": "up to 4 ×"},
      {"measurement": "WAK91 induction (in words)", "setting": "WAK91 gene expression; chitin used as described in Miya et al (2007), FIG. 2", "result": "sufficient to cause WAK91 induction"},
      {"measurement": "induction of PR5 and PDX223 defense genes (in words)", "setting": "[1]", "result": "induced later"}
    ]}
  ]
}
